Measurements: patent publication US10844077B2, “Thiazolyl-containing compounds for treating proliferative diseases” (Dana-Farber Cancer Institute, Inc., priority 2014, dated 2020)

How the values were obtained:
Assay type in all cases: binding
broad panel of kinases [1] = molecular target: broad panel of kinases (Homo sapiens, UniProt P36888, D835H); conditions: FLT3(D835H); 1 μM
broad panel of kinases [2] = molecular target: broad panel of kinases (Homo sapiens, UniProt Q6P3R8); conditions: NEK5; 1 μM
broad panel of kinases [3] = molecular target: broad panel of kinases (Homo sapiens, UniProt P36897); conditions: TGFBR1; 1 μM
broad panel of kinases [4] = molecular target: broad panel of kinases (Homo sapiens, UniProt O14965); conditions: AURKA; 1 μM
broad panel of kinases [5] = molecular target: broad panel of kinases (Homo sapiens, UniProt P19525); conditions: PRKR; 1 μM
broad panel of kinases [6] = molecular target: broad panel of kinases (Homo sapiens, UniProt Q13153); conditions: PAK1; 1 μM
broad panel of kinases [7] = molecular target: broad panel of kinases (Homo sapiens, UniProt P45983); conditions: JNK1; 1 μM
broad panel of kinases [8] = molecular target: broad panel of kinases (Homo sapiens, UniProt Q9H1R3); conditions: MYLK2; 1 μM
broad panel of kinases [9] = molecular target: broad panel of kinases (Homo sapiens, UniProt Q8N5S9); conditions: CAMKK1; 1 μM
broad panel of kinases [10] = molecular target: broad panel of kinases (Homo sapiens, UniProt Q16816); conditions: PHKG1; 1 μM
broad panel of kinases [11] = molecular target: broad panel of kinases (Homo sapiens, UniProt P54760); conditions: EPHB4; 1 μM
broad panel of kinases [12] = molecular target: broad panel of kinases (Homo sapiens, UniProt P07948); conditions: LYN; 1 μM
broad panel of kinases [13] = molecular target: broad panel of kinases (Homo sapiens, UniProt Q9Y6R4); conditions: MAP3K4; 1 μM
broad panel of kinases [14] = molecular target: broad panel of kinases (Homo sapiens, UniProt Q13043); conditions: MST1; 1 μM
broad panel of kinases [15] = molecular target: broad panel of kinases (Homo sapiens, UniProt P36894); conditions: BMPR1A; 1 μM
broad panel of kinases [16] = molecular target: broad panel of kinases (Homo sapiens, UniProt Q99640); conditions: PKMYT1; 1 μM
broad panel of kinases [17] = molecular target: broad panel of kinases (Homo sapiens, UniProt Q9HAZ1); conditions: CLK4; 1 μM
broad panel of kinases [18] = molecular target: broad panel of kinases (Homo sapiens, UniProt Q9C098); conditions: DCAMKL3; 1 μM
broad panel of kinases [19] = molecular target: broad panel of kinases (Homo sapiens, UniProt Q13557); conditions: CAMK2D; 1 μM
broad panel of kinases [20] = molecular target: broad panel of kinases (Homo sapiens, UniProt P06241); conditions: FYN; 1 μM
broad panel of kinases [21] = molecular target: broad panel of kinases (Homo sapiens, UniProt P51955); conditions: NEK2; 1 μM
broad panel of kinases [22] = molecular target: broad panel of kinases (Homo sapiens, UniProt P78368); conditions: CSNK1G2; 1 μM
broad panel of kinases [23] = molecular target: broad panel of kinases (Homo sapiens, UniProt Q8IVH8); conditions: MAP4K3; 1 μM
broad panel of kinases [24] = molecular target: broad panel of kinases (Homo sapiens, UniProt P00533, DEL746-750); conditions: EGFR(E746-A750del); 1 μM
broad panel of kinases [25] = molecular target: broad panel of kinases (Homo sapiens, UniProt Q13233); conditions: MAP3K1; 1 μM
broad panel of kinases [26] = molecular target: broad panel of kinases (Homo sapiens, UniProt O75716); conditions: STK16; 1 μM
broad panel of kinases [27] = molecular target: broad panel of kinases (Homo sapiens, UniProt O95819); conditions: MAP4K4; 1 μM
broad panel of kinases [28] = molecular target: broad panel of kinases (Homo sapiens, UniProt P42680); conditions: TEC; 1 μM
broad panel of kinases [29] = molecular target: broad panel of kinases (Homo sapiens, UniProt Q9UQB9); conditions: AURKC; 1 μM
broad panel of kinases [30] = molecular target: broad panel of kinases (Homo sapiens, UniProt Q8N752); conditions: CSNK1A1L; 1 μM
broad panel of kinases [31] = molecular target: broad panel of kinases (Homo sapiens, UniProt Q13554); conditions: CAMK2B; 1 μM
broad panel of kinases [32] = molecular target: broad panel of kinases (Homo sapiens, UniProt Q9NSY1); conditions: BIKE; 1 μM
broad panel of kinases [33] = molecular target: broad panel of kinases (Homo sapiens, UniProt P78362); conditions: SRPK2; 1 μM
broad panel of kinases [34] = molecular target: broad panel of kinases (Homo sapiens, UniProt P10721, V559D/V654A); conditions: KIT(V559D, V654A); 1 μM
broad panel of kinases [35] = molecular target: broad panel of kinases (Homo sapiens, UniProt Q9UBF8); conditions: PIK4CB; 1 μM
broad panel of kinases [36] = molecular target: broad panel of kinases (Homo sapiens, UniProt P20794); conditions: MAK; 1 μM
broad panel of kinases [37] = molecular target: broad panel of kinases (Homo sapiens, UniProt Q9P2K8, S808G); conditions: GCN2(Kin.Dom.2, S808G); 1 μM

Sequence of broad panel of kinases (Homo sapiens, UniProt O75716) (O75716 2-305 limits assumed): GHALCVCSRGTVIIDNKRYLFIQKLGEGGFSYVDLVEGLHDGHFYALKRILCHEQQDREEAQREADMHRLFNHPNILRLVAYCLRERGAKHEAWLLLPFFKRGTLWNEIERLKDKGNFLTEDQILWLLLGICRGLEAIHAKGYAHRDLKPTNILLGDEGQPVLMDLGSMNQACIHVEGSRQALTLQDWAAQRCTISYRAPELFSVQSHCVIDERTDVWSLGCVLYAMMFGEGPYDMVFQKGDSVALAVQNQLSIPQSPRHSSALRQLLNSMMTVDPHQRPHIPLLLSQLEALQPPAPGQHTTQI
Sequence of broad panel of kinases (Homo sapiens, UniProt P07948) (P07948 2-512 limits assumed): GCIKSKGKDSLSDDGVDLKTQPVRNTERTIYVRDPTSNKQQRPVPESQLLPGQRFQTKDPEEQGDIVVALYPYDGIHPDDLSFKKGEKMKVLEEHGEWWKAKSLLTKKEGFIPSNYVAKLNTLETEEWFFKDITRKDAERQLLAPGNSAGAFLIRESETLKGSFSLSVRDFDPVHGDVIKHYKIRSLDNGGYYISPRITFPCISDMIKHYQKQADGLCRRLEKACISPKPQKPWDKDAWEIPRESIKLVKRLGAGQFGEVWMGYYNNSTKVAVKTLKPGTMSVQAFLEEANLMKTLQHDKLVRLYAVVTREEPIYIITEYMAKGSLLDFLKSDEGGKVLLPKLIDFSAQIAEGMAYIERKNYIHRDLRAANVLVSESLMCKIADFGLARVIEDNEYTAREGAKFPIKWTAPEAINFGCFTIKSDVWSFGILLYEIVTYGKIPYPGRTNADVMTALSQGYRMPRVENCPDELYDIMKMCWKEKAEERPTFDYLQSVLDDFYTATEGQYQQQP
Sequence of broad panel of kinases (Homo sapiens, UniProt P00533, DEL746-750) (P00533 with tags, fused parts or gaps DEL746-750 limits assumed): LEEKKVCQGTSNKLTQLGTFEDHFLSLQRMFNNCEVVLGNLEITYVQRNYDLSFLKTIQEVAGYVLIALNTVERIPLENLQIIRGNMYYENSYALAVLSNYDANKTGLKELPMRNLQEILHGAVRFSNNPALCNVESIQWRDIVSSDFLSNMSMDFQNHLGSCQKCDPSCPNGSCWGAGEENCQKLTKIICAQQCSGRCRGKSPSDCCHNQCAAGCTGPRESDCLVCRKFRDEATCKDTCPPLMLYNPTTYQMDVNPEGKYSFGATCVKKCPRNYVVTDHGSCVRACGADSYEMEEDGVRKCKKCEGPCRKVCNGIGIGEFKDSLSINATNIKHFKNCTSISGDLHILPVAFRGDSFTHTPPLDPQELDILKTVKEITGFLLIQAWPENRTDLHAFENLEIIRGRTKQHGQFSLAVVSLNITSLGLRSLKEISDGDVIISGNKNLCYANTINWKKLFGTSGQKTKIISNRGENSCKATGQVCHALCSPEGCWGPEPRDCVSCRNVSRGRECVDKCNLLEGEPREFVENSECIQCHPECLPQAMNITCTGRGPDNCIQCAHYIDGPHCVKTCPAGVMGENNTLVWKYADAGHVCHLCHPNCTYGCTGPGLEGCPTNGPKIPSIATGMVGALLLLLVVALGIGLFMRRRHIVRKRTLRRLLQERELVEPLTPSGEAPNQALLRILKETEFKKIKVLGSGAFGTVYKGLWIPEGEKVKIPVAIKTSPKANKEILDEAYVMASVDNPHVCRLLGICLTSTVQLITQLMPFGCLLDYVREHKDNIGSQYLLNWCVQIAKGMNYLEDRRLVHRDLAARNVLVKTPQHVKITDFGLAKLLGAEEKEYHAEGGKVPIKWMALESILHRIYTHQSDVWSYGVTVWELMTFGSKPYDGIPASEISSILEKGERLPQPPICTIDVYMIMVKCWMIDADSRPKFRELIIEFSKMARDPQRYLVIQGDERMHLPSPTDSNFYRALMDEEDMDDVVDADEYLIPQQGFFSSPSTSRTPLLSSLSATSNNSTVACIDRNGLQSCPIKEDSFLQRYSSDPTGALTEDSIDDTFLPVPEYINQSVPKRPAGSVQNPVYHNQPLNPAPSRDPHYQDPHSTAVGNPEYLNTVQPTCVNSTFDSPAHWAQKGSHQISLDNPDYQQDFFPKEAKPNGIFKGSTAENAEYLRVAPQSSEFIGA
Sequence of broad panel of kinases (Homo sapiens, UniProt P36894) (P36894 24-532 limits assumed): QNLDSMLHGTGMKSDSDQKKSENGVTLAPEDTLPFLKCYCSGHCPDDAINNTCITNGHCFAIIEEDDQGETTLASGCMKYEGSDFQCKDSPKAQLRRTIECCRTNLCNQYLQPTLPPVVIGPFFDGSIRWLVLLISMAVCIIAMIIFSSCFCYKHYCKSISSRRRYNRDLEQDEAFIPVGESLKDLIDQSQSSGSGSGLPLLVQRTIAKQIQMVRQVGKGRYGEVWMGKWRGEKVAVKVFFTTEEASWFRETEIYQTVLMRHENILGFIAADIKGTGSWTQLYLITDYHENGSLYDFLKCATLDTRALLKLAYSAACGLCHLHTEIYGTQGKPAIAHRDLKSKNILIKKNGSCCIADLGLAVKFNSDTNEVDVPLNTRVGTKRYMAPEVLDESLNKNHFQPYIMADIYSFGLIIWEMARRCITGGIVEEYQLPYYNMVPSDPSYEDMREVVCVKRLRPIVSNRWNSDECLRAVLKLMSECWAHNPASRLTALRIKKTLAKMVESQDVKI
Sequence of broad panel of kinases (Homo sapiens, UniProt Q13153) (Q13153 2-545 limits assumed): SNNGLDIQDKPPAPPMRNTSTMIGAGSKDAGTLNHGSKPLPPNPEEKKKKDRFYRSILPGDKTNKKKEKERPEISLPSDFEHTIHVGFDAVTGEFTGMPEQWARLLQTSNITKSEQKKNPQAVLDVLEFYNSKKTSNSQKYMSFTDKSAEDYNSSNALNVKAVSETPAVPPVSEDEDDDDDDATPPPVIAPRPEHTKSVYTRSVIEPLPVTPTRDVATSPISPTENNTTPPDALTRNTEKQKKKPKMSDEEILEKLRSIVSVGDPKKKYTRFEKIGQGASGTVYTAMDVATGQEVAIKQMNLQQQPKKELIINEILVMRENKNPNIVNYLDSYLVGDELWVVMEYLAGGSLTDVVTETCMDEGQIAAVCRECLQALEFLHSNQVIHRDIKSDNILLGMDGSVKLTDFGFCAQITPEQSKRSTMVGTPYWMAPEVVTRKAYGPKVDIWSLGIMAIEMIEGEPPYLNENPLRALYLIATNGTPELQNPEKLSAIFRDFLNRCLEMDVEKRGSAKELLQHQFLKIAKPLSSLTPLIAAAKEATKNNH
Sequence of broad panel of kinases (Homo sapiens, UniProt P19525) (P19525 2-551 limits assumed): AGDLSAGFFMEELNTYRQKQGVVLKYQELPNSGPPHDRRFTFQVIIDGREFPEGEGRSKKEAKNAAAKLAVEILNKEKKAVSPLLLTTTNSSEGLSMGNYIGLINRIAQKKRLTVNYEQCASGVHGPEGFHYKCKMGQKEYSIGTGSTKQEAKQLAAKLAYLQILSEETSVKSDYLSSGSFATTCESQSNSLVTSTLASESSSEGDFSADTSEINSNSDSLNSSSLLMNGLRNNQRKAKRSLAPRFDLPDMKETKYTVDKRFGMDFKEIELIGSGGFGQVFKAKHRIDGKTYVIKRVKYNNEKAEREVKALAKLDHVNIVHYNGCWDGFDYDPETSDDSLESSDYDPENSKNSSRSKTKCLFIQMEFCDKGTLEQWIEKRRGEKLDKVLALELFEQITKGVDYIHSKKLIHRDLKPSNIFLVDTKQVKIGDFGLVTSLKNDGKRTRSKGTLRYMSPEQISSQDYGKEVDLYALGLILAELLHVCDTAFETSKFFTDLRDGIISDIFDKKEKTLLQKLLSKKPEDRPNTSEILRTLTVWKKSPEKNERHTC
Sequence of broad panel of kinases (Homo sapiens, UniProt Q9H1R3) (Q9H1R3 2-596 limits assumed): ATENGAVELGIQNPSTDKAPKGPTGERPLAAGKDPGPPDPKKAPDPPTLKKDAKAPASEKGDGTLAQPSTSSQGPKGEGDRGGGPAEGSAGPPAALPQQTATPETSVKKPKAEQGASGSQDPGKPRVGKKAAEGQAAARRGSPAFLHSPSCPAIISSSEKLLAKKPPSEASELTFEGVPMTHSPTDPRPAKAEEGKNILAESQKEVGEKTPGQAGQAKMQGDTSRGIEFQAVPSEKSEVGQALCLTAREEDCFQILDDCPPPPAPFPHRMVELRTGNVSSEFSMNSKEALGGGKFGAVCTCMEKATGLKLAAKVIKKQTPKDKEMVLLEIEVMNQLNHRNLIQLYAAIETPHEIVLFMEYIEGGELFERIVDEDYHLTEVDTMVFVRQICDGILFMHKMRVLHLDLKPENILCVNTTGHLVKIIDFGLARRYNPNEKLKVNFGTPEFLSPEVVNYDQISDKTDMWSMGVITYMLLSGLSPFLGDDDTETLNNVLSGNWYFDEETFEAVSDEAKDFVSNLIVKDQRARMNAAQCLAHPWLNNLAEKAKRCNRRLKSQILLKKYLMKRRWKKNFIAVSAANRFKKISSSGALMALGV
Sequence of broad panel of kinases (Homo sapiens, UniProt P36897) (P36897 34-503 limits assumed): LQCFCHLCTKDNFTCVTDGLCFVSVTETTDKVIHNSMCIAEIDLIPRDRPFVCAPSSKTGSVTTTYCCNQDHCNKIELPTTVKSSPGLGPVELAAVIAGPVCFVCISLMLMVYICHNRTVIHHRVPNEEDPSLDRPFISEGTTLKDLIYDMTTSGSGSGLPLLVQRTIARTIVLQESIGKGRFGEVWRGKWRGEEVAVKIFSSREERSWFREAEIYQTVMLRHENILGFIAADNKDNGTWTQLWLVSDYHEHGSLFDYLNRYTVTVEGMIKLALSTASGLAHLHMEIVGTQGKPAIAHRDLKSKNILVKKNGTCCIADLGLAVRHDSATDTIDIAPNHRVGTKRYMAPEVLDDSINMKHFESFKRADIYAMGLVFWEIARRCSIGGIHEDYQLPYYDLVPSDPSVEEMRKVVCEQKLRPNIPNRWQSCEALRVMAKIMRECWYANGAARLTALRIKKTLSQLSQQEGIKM

| SMILES | percent of control binding remaining (lower = stronger binding) (broad panel of kinases [1]) [%] | percent of control binding remaining (lower = stronger binding) (broad panel of kinases [2]) [%] | percent of control binding remaining (lower = stronger binding) (broad panel of kinases [3]) [%] | percent of control binding remaining (lower = stronger binding) (broad panel of kinases [4]) [%] | percent of control binding remaining (lower = stronger binding) (broad panel of kinases [5]) [%] | percent of control binding remaining (lower = stronger binding) (broad panel of kinases [6]) [%] | percent of control binding remaining (lower = stronger binding) (broad panel of kinases [7]) [%] | percent of control binding remaining (lower = stronger binding) (broad panel of kinases [8]) [%] | percent of control binding remaining (lower = stronger binding) (broad panel of kinases [9]) [%] | percent of control binding remaining (lower = stronger binding) (broad panel of kinases [10]) [%] | percent of control binding remaining (lower = stronger binding) (broad panel of kinases [11]) [%] | percent of control binding remaining (lower = stronger binding) (broad panel of kinases [12]) [%] | percent of control binding remaining (lower = stronger binding) (broad panel of kinases [13]) [%] | percent of control binding remaining (lower = stronger binding) (broad panel of kinases [14]) [%] | percent of control binding remaining (lower = stronger binding) (broad panel of kinases [15]) [%] | percent of control binding remaining (lower = stronger binding) (broad panel of kinases [16]) [%] | percent of control binding remaining (lower = stronger binding) (broad panel of kinases [17]) [%] | percent of control binding remaining (lower = stronger binding) (broad panel of kinases [18]) [%] | percent of control binding remaining (lower = stronger binding) (broad panel of kinases [19]) [%] | percent of control binding remaining (lower = stronger binding) (broad panel of kinases [20]) [%] | further results |
| --- | --- | --- | --- | --- | --- | --- | --- | --- | --- | --- | --- | --- | --- | --- | --- | --- | --- | --- | --- | --- | --- |
| C=CC(=O)N1CC[C@H](Nc2nc(CN3CCOCC3)cc(Nc3ncc(C(=O)Nc4c(C)cccc4C)s3)n2)C1 [Example I-2] | 100 | 96 | 50 | 73 | 89 | 100 | 94 | 100 | 100 | 100 | 0 | 0 | 83 | 100 | 100 | 59 | 94 | 97 | 91 | 0.3 | percent of control binding remaining (lower = stronger binding) (broad panel of kinases [21]): 100%; percent of control binding remaining (lower = stronger binding) (broad panel of kinases [22]): 97%; percent of control binding remaining (lower = stronger binding) (broad panel of kinases [23]): 100%; percent of control binding remaining (lower = stronger binding) (broad panel of kinases [24]): 3.7%; percent of control binding remaining (lower = stronger binding) (broad panel of kinases [25]): 70%; percent of control binding remaining (lower = stronger binding) (broad panel of kinases [26]): 99%; percent of control binding remaining (lower = stronger binding) (broad panel of kinases [27]): 96%; percent of control binding remaining (lower = stronger binding) (broad panel of kinases [28]): 3.6%; percent of control binding remaining (lower = stronger binding) (broad panel of kinases [29]): 90%; percent of control binding remaining (lower = stronger binding) (broad panel of kinases [30]): 100%; percent of control binding remaining (lower = stronger binding) (broad panel of kinases [31]): 84%; percent of control binding remaining (lower = stronger binding) (broad panel of kinases [32]): 100%; percent of control binding remaining (lower = stronger binding) (broad panel of kinases [33]): 92%; percent of control binding remaining (lower = stronger binding) (broad panel of kinases [34]): 7.2%; percent of control binding remaining (lower = stronger binding) (broad panel of kinases [35]): 100%; percent of control binding remaining (lower = stronger binding) (broad panel of kinases [36]): 100%; percent of control binding remaining (lower = stronger binding) (broad panel of kinases [37]): 85% |
| C=CC(=O)N1CC[C@H](Nc2nccc(Nc3ncc(C(=O)Nc4c(C)cccc4C)s3)n2)C1 [Example I-3] | 100 | 87 | 97 | 80 | 69 | 95 | 81 | 100 | 97 | 99 | 0 | 0.1 | 95 | 97 | 92 | 47 | 85 | 92 | 92 | 0.5 | percent of control binding remaining (lower = stronger binding) (broad panel of kinases [21]): 96%; percent of control binding remaining (lower = stronger binding) (broad panel of kinases [22]): 93%; percent of control binding remaining (lower = stronger binding) (broad panel of kinases [23]): 100%; percent of control binding remaining (lower = stronger binding) (broad panel of kinases [24]): 2.9%; percent of control binding remaining (lower = stronger binding) (broad panel of kinases [25]): 80%; percent of control binding remaining (lower = stronger binding) (broad panel of kinases [26]): 89%; percent of control binding remaining (lower = stronger binding) (broad panel of kinases [27]): 96%; percent of control binding remaining (lower = stronger binding) (broad panel of kinases [28]): 3.3%; percent of control binding remaining (lower = stronger binding) (broad panel of kinases [29]): 71%; percent of control binding remaining (lower = stronger binding) (broad panel of kinases [30]): 95%; percent of control binding remaining (lower = stronger binding) (broad panel of kinases [31]): 81%; percent of control binding remaining (lower = stronger binding) (broad panel of kinases [32]): 90%; percent of control binding remaining (lower = stronger binding) (broad panel of kinases [33]): 64%; percent of control binding remaining (lower = stronger binding) (broad panel of kinases [34]): 25%; percent of control binding remaining (lower = stronger binding) (broad panel of kinases [35]): 36%; percent of control binding remaining (lower = stronger binding) (broad panel of kinases [36]): 100%; percent of control binding remaining (lower = stronger binding) (broad panel of kinases [37]): 100% |
